{"source": "patent US9497964B2", "about": "“Synergistic activity of peracetic acid and at least one SAR inducer for the control of pathogens in and onto growing plants” (AGRI-NEO INC., priority 2010, dated 2016)", "test_system": "Fusarium patch disease", "assay": "Fusarium patch on turfgrass in British Columbia Canada", "type": "in vivo", "details": "for % disease control vs untreated / mean # disease spots/plot: 0.6 kg/ha", "description": "Creeping bentgrass was naturally inoculated with Fusarium patch disease. Four plots were assessed, and each plot was four square meters of mature turf. Four replicates were used per treatment. […] Azoxystrobin is a broad-spectrum fungicide with a single-site mode of action: it binds very tightly to the Qo site of Complex III in the mitochondrial electron transport chain of fungal pathogens. Thus the disease pest is prevented from generating ATP, so it dies for lack of metabolic energy. Azoxystrobin is itself extracted from certain Eastern European mushrooms reputed for their resistance to disease induced by other fungi. Azoxystrobin, marketed under the brand name of Heritage, is one of the commercial standards used in the management of Fusarium Patch disease on turf grass. It was against this reference that the efficacy of […] in controlling this pathogen was compared and contrasted.\nSpray volume was one thousand liters per hectare. Three product applications were made. The interval between applications was 14 days.\nObservations (disease symptoms, leaf damage due to product, and grass vigour) were made at the following intervals: • Immediately prior to each application. • Nine days after the last (third) application. • Sixty days after the last (third) application. • Ninety days after the last (third) application."}
{"smiles": "CO/C=C(/C(=O)OC)c1ccccc1Oc1cc(Oc2ccccc2C#N)ncn1", "note": "[Azoxystrobin]", "values": [{"measurement": "% disease control vs untreated", "setting": "Spring", "value": 17, "unit": "%"}, {"measurement": "mean # disease spots/plot", "setting": "Spring", "value": 10}, {"measurement": "% disease control vs untreated", "setting": "Winter", "value": 31, "unit": "%"}, {"measurement": "mean # disease spots/plot", "setting": "Winter", "value": 9}, {"measurement": "reduction of disease incidence relative to the water-sprayed inoculated control", "setting": "Azoxystrobin", "value": "15-30%"}]}
